Results: ChEMBL document CHEMBL4765306, “Design, synthesis and biological evaluation of novel naturally-inspired multifunctional molecules for the management of Alzheimer's disease” (Eur J Med Chem, 2020)
Calls of active or inactive are those of the source. The calls are words filed in the database; no cut-off is given here.

What was measured:
[1] = target: Cholinesterase (Equus caballus) (UniProt P81908); assay: Inhibition of […] equine serum BuChE at 20 uM using butyryl thiocholine iodide as substrate preincubated for 30 mins followed by substrate addition and measured after 30 mins by spectrophotometry based Ellman's method relative to control; assay type: cell-free; conditions: time 60.0 min
Acetylcholinesterase [2] = target: T1, Acetylcholinesterase (Homo sapiens, UniProt P22303); assay: Inhibition of recombinant human erythrocyte AChE using acetylthiocholine iodide as substrate preincubated for 30 mins followed by substrate addition and measured after 30 mins by spectrophotometry based Ellman's method
[3] = Antioxidant activity assessed as DPPH radical scavenging activity at 20 uM incubated for 25 mins in shaker relative to control; assay type: functional
Cholinesterase = Cholinesterase (Equus caballus, UniProt P81908); assay: Inhibition of […] equine serum BuChE using butyryl thiocholine iodide as substrate preincubated for 30 mins followed by substrate addition and measured after 30 mins by spectrophotometry based Ellman's method; assay type: cell-free
[4] = Metal chelating activity assessed as Fe3+-compound complex formation at 300 uM measured for 30 mins by UV-Visible spectrophotometric method
[5] = Antioxidant activity assessed as DPPH radical scavenging activity incubated for 25 mins in shaker; assay type: functional
[6] = Metal chelating activity assessed as Fe3+-compound complex formation at 300 uM measured for 30 mins by MS-MS analysis
Homo sapiens = species: Homo sapiens; assay: Disruption of human amyloid beta 1 to 42 assessed as effect on amyloid beta 1 to 42 morphology at 1.58 uM incubated for 10 days by atomic force microscopic analysis; conditions: time 10.0 day
Mus musculus [7] = assay: Ex vivo antioxidant activity in brain of scopolamine-induced Swiss albino mouse model of amnesia assessed as decrease in MDA level at 12.5 to 25 mg/kg, po administered for 7 days and observed after 30 mins before scopolamine treatment and measured after 15 mins; assay type: functional, organism-based; conditions: dose 12.5-25 mg/kg, time 7.0 day
Mus musculus [8] = assay: Ex vivo antioxidant activity in brain of scopolamine-induced Swiss albino mouse model of amnesia assessed as increase in CAT level at 12.5 to 25 mg/kg, po administered for 7 days and observed after 30 mins before scopolamine treatment and measured after 15 mins; assay type: functional, organism-based; conditions: dose 12.5-25 mg/kg, time 7.0 day
[9] = target: Cholinesterase (Homo sapiens) (UniProt P06276); assay: Inhibition of BuChE (unknown origin) at 20 uM relative to control
Mus musculus [10] = assay: Memory enhancement effect in scopolamine-induced Swiss albino mouse model of amnesia assessed as effect on total arm entries at 12.5 to 25 mg/kg, po administered for 7 days and observed after 30 mins before scopolamine treatment and measured after 15 mins by Y-maze test; assay type: functional, organism-based; conditions: dose 12.5-25 mg/kg, time 7.0 day
Acetylcholinesterase [11] = target: T1, Acetylcholinesterase; assay: Inhibition of AChE (unknown origin) at 20 uM relative to control
Mus musculus [12] = assay: Ex vivo inhibition of AChE in brain of scopolamine-induced Swiss albino mouse model of amnesia at 12.5 to 25 mg/kg, po administered for 7 days and observed after 30 mins before scopolamine treatment and measured after 15 mins using acetylthiocholine iodide as substrate by Ellman's method; assay type: functional, organism-based; conditions: dose 12.5-25 mg/kg, time 7.0 day
Mus musculus [13] = assay: Ex vivo inhibition of BChE in brain of scopolamine-induced Swiss albino mouse model of amnesia at 12.5 to 25 mg/kg, po administered for 7 days and observed after 30 mins before scopolamine treatment and measured after 15 mins using butyryl thiocholine iodide as substrate by Ellman's method; assay type: functional, organism-based; conditions: dose 12.5-25 mg/kg, time 7.0 day
Mus musculus [14] = assay: Ex vivo antioxidant activity in brain of scopolamine-induced Swiss albino mouse model of amnesia assessed as increase in SOD level at 12.5 to 25 mg/kg, po administered for 7 days and observed after 30 mins before scopolamine treatment and measured after 15 mins; assay type: functional, organism-based; conditions: dose 12.5-25 mg/kg, time 7.0 day
Mus musculus [15] = assay: Memory enhancement effect in scopolamine-induced Swiss albino mouse model of amnesia assessed as increase in spontaneous alteration at 12.5 to 25 mg/kg, po administered for 7 days and observed after 30 mins before scopolamine treatment and measured after 15 mins by Y-maze test; assay type: functional, organism-based; conditions: dose 12.5-25 mg/kg, time 7.0 day
Acetylcholinesterase [16] = target: T1, Acetylcholinesterase; assay: Inhibition of recombinant human erythrocyte AChE at 20 uM using acetylthiocholine iodide as substrate preincubated for 30 mins followed by substrate addition and measured after 30 mins by spectrophotometry based Ellman's method relative to control; conditions: time 60.0 min

T1 sequence (P22303 whole entry): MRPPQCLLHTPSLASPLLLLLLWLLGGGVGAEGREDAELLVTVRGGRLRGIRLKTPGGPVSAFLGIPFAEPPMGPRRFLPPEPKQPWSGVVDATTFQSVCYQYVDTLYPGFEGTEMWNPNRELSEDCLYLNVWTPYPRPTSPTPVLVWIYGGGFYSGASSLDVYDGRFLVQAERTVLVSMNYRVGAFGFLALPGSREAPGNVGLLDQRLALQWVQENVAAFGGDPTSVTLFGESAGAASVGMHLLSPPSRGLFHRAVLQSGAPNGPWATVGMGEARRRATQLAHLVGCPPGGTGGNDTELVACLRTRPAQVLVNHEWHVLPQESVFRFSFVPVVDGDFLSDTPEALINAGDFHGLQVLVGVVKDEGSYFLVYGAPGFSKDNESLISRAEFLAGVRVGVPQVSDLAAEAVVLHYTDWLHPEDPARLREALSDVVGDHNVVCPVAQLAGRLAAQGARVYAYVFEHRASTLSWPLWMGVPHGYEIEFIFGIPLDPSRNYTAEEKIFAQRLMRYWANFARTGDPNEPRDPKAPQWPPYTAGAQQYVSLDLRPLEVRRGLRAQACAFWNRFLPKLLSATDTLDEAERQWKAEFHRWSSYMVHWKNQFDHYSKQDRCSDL
Chain of Cholinesterase (Equus caballus) (P81908 whole entry): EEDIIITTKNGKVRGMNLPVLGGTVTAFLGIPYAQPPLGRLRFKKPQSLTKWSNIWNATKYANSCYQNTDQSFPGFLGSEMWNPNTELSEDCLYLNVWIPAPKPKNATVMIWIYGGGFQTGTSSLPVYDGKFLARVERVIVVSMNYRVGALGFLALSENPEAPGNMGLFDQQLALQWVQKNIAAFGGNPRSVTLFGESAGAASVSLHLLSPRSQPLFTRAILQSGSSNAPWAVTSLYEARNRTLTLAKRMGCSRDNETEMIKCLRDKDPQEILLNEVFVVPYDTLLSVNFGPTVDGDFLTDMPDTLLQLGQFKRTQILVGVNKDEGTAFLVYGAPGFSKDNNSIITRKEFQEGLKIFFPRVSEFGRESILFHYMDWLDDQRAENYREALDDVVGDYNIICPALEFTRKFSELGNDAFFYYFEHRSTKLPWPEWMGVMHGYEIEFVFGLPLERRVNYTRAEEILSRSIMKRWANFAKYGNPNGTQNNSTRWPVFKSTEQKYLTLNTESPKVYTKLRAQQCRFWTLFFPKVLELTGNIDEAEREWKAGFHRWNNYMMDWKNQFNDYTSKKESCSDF
Chain of Cholinesterase (Homo sapiens) (P06276 whole entry): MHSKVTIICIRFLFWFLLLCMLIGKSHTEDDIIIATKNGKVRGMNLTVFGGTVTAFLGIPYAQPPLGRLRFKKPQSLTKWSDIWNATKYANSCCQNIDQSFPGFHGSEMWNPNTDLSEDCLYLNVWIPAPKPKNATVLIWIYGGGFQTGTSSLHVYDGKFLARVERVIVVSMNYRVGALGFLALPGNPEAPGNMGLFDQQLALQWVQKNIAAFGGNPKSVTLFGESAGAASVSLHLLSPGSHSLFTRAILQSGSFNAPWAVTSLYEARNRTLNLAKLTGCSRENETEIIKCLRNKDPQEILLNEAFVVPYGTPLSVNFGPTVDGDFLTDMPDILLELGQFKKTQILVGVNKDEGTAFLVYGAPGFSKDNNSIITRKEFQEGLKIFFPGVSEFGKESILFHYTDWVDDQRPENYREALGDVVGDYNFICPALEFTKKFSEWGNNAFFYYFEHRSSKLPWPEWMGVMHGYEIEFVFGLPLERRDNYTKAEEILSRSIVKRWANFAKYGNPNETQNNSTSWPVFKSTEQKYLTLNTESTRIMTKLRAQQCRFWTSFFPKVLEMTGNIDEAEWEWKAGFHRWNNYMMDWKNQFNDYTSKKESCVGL
Chain of Cholinesterase (P81908 whole entry): as the sequence (P81908 whole entry) above

`COc1cc(/C=C/C(=O)NCC(=O)Nc2cccc(C(F)(F)F)c2)ccc1O` showed an inhibition [1] of 34.9% and an IC50 (Acetylcholinesterase [2]) of 9.31 µM.

For `COc1cc(/C=C/C(=O)NCC(=O)Nc2ccc(C)cc2)ccc1O`, the inhibition [1] was 35.6% and the IC50 (Acetylcholinesterase [2]) was 12.6 µM.

`COc1cc(/C=C/C(=O)N2CCN(c3cccc([N+](=O)[O-])c3)CC2)ccc1O` showed an inhibition [1] of 37.9% and an IC50 (Acetylcholinesterase [2]) of 23.4 µM.

`COc1cccc(NC(=O)CNC(=O)/C=C/c2ccc(O)c(OC)c2)c1` showed an Activity [3] of 19.1%, an IC50 (Cholinesterase) of 15.3 µM and an inhibition [1] of 55.4%. For the same compound, the Activity [4] was “Active”, the IC50 [5] was 94.3 µM and the IC50 (Acetylcholinesterase [2]) was 2.42 µM. The Activity [6] was “Active”.

Work on `COc1cc(/C=C/C(=O)NCC(=O)Nc2ccccc2C)ccc1O` yielded an inhibition [1] of 36.8% and an IC50 (Acetylcholinesterase [2]) of 16.3 µM.

`COc1cc(/C=C/C(=O)N2CCN(c3ccc(Cl)cc3)CC2)ccc1O` showed an inhibition [1] of 33.2% and an IC50 (Acetylcholinesterase [2]) of 11.1 µM.

In the case of `COc1cc(/C=C/C(=O)NCC(=O)Nc2ccc(Br)cc2)ccc1O`, the inhibition [1] is reported as 39.3% and the IC50 (Acetylcholinesterase [2]) is reported as 10.2 µM.

With `COc1cc(/C=C/C(=O)NCC(=O)Nc2ccccc2Cl)ccc1O` the inhibition [1] was 47.4% and the IC50 (Acetylcholinesterase [2]) was 5.72 µM.

Compound `COc1cc(/C=C/C(=O)NCC(=O)Nc2cccc(Cl)c2)ccc1O` has an Activity [3] of 12.7%, an inhibition [1] of 48.5% and an IC50 [5] of 108 µM. For the same compound, the IC50 (Acetylcholinesterase [2]) was 5.68 µM.

Compound `COc1cc(/C=C/C(=O)NCC(=O)Nc2cccc(F)c2)ccc1O` has an inhibition [1] of 38.3% and an IC50 (Acetylcholinesterase [2]) of 22.1 µM.

Compound `COc1cc(/C=C/C(=O)NCC(=O)Nc2ccccc2C(F)(F)F)ccc1O` has an inhibition [1] of 43.2% and an IC50 (Acetylcholinesterase [2]) of 15.1 µM.

`COc1cc(/C=C/C(=O)NCC(=O)Nc2ccc(Cl)cc2)ccc1O` showed an Activity [3] of 16.7%, an inhibition [1] of 46.9% and an IC50 [5] of 101 µM. The IC50 (Acetylcholinesterase [2]) was 3.43 µM.

Work on `COc1cc(/C=C/C(=O)NCC(=O)Nc2ccccc2OC)ccc1O` yielded an inhibition [1] of 43.3% and an IC50 (Acetylcholinesterase [2]) of 5.75 µM.

`COc1ccc(N2CCN(C(=O)/C=C/c3ccc(O)c(OC)c3)CC2)cc1` showed an inhibition [1] of 44.7% and an IC50 (Acetylcholinesterase [2]) of 12 µM.

For `COc1cc(/C=C/C(=O)O)ccc1O` [FERULATE], the Activity (Homo sapiens) was “Active”, the Activity [3] was 28.6% and the Activity (Mus musculus [7]) was “Active”. The Activity (Mus musculus [8]) was “Active”, the inhibition [9] was less than 20% and the inhibition [1] was 19.7%. For the same compound, the Activity (Mus musculus [10]) was “inactive”, the IC50 [5] was 56.5 µM and the inhibition (Acetylcholinesterase [11]) was less than 20%. For the same compound, the Activity (Mus musculus [12]) was “inactive”, the Activity (Mus musculus [13]) was “inactive” and the Activity (Mus musculus [14]) was “Active”. The Activity (Mus musculus [15]) was “inactive” and the inhibition (Acetylcholinesterase [16]) was less than 10%.
